This is an account of results in US5994402A, “Anti-inflammatory and anti-pyretic method” (priority 1997, dated 1999).

SMILES strings stand for the structures.

In data set [1] the test system is lung permeability after intratracheal LPS. The experiment in a line: LPS-induced lung injury: lung permeability index (transcapillary 125I-albumin flux). It is filed as in vivo, male Sprague Dawley rats. The conditions noted are these: for Lung PI (t = 4 hrs): LPS +, mean ± SEM. The method, then:
(§1) Male Sprague Dawley rats weighing 250-275 g were obtained from Charles River Laboratories (Constante, Quebec). All animal studies were performed in accordance with guidelines set forth by the Toronto Hospital Animal Care Committee and the Canadian Council on Animal Care. Animals were housed in standard wire bottom cages, fed standard rat chow and water ad libitum and were allowed to acclimatize before use. Prior to experimentation, animals were fasted overnight and anesthetized with intraperitoneal sodium pentobarbital (50 mg/kg). A tracheostomy was performed and 0.5 ml of saline containing […] of lipopolysaccharide was instilled followed by 20 mechanically ventilated breaths using a rodent ventilator. Sham animals received 0.5 ml of saline alone. Animals were maintained at 37° C. with the use of warming blankets until recovery from anaesthesia.
(§2) For examples 11 to 17, systemic GSH depletion in animals was accomplished by administering various doses of DEM or phorone by intraperitoneal injection following an overnight fast
At the end of the experimental protocol, rats were ventilated, heparin (100 U) was injected into the right ventricle, and 1 ml of blood was withdrawn by cardiac puncture. Following exsanguination, lungs were perfused blood-free by cannulating the pulmonary artery and infusing 10 ml of a low-potassium dextran solution containing 0.5 mg/L of PGE1. The left ventricle, left atria and mitral valve were opened widely to allow free drainage of effluent. The right lung was immediately frozen in liquid nitrogen for assay of non-protein thiols and ICAM-1 and TNF-a mRNA expression, myeloperoxidase activity, as described below. The left lung was used to calculate a permeability index (PI) as follows: [formula] Thioglycollate-induced Peritonitis

The subject of data set [2] is lung GSH. The experiment in a line: Lung glutathione / non-protein thiol assay (DTNB). It is filed as in vivo, male Sprague Dawley rats. The conditions noted are these: for Lung GSH (t = 4 hrs): LPS +, mean ± SEM. The method, then:
as §1, §2
(§3) Quantitation of total lung and endothelial non-protein sulfhydryls (NPSH) was assessed using a DTNB based assay as described by Jocelyn. Lung tissue was thawed and weighed, and approximately 0.25 gm was homogenized in 2 ml of 5% SSA. The homogenate was sonicated for 30 seconds and centrifuged for 10 minutes at 10 000 g. The resultant acid thiol extract was assayed for NPSH by quantitating the reduction of DTNB through its conversion to 5-thio-2-nitrobenzoic acid (TNB) at 412 nm using a spectrophotometer. Sample values were then calculated from a standard curve generated using known amounts of GSH and are expressed as GSH equivalents per gram of lung tissue.
Quantitation of lung non-protein sulfhydryls (NPSH) was assessed using a DTNB based assay as described by Jocelyn ^17. Lung tissue was thawed and weighed, and approximately 0.25 gm was homogenized in 2 ml of 5% SSA. The homogenate was sonicated for 30 seconds and centrifuged for 10 minutes at 10 000 g. The resultant acid thiol extract was assayed for NPSH by quantitating the is reduction of DTNB through its conversion to 5-thio-2-nitrobenzoic acid (TNB) at 412 nm using a spectrophotometer. Sample values were then calculated from a standard curve generated using known amounts of GSH and are expressed as GSH equivalents per gram of lung tissue.

Data set [3] relates to RHEC. The experiment in a line: Cytotoxicity to RHEC (LDH, trypan blue, monolayer integrity). The format is cell-based, rat. The conditions noted are these: for supernatant lactate dehydrogenase activity: DEM, mean ± SEM. An excerpt: To determine whether the reduction in ICAM-1 expression was a direct effect of DEM, we attempted to recapitulate the effect in vitro using rat heart endothelial cells (RHEC) activated by either LPS or TNF-a.
(§4) ICAM-1 is expressed on a number of cells present in the lung including endothelial cells, macrophages, neutrophils and alveolar epithelial cells {3224}. Since DEM served to reduced PMN sequestration In the lung, we hypothesized that an effect on endothelial cell ICAM-1 expression might be responsible. To test this possibility, we modeled the system in vitro using RHEC activated by either LPS or TNF-a. […] To determine whether the effect of GSH depletion on ICAM-1 expression was species specific, this parameter was similarly evaluated in HUVEC.
Endothelial cells were isolated from the hearts of 5-day old rats according to the method of Kasten ^22 and allowed to grow to confluence. For experiments 11 to 17, human umbilical vein endothelial cells (HUVEC) were isolated as previously described. The endothelial cells were harvested using trypsin-EDTA treatment and seeded into 96 well, flat bottomed microtitre plates in minimal essential medium with 20% fetal calf serum. When the monolayers had reached confluence (approximately 4 days) cells were pretreated with diethylmaleate for 30 minutes followed by activation with either LPS or TNF-a. After 6 hours, supernatants were collected for measurement of lactate dehydrogenase (LDH) activity. Cells were washed twice with RPMI/5% fetal calf serum and incubated with mouse anti-rat ICAM-1 mAb for 1 hour, washed, and then incubated with peroxidase-conjugated goat anti-mouse IgG for 1 hour. Cells were washed again and color development initiated by the addition of the substrate, o-phenyidiamine hydrochloride. After 18 minutes, the reaction was stopped with 3 M sulfuric acid and the optical density at 492 nm determined using a microtitre plate reader. Data are expressed as the change in absorption from baseline. Quantitation of supernatant LDH activity as a measure of cytotoxicity was determined using spectrophotometric methods as previously described ^23.

Data set [4] has as its system antigen-induced arthritis. The experiment in a line: Antigen-induced arthritis (AIA). It is filed as in vivo, Lewis rats. The conditions noted are these: DEM 6 mmole/kg ip 1 h prior to antigen; 3+ without DEM. Here is the method: We examined the effect of intracellular thiol depletion in antigen-induced arthritis (AIA) with the administration of diethylmaleate (DEM) which is known to deplete glutathione. AIA was induced by sensitizing Lewis rats with 2 subcutaneous injections of methylated bovine serum albumin (1 mg/ml), then administering an intra-articular injection of mBSA.

The subject of data set [5] is skin vascular permeability. The experiment in a line: LPS dermal inflammation: skin permeability index. The format is in vivo, Swiss Webster mice. The conditions noted are these: for PI (mean ± SEM): 24 h. Here is the method: Swiss Webster mice were injected intradermally with saline or LPS (30 μg) with or without ip DEM or vehicle. Injection sites were harvested after 24 hours and evaluated for change in vascular permeability, using I^125 -labelled albumin and for levels of ICAM-1 mRNA (Table III).

The subject of data set [6] is intracellular GSH levels in RHEC. The experiment in a line: Intracellular GSH in RHEC. It is filed as cell-based, rat. Particulars: DEM 250 mM (so in the source).
Text: as §4, §3

For data set [7], the system named is kidney transplant recipients. The experiment in a line: Kidney transplant survival. It is filed as in vivo, black 6 mouse donor to C3H mouse. The conditions noted are these: DEM 6 mmol/kg to donor and recipient; some mice. An excerpt:
A kidney from a black 6 mouse was transplanted into a C3H mouse in a sample of ten test mice and ten control mice. This is a major mismatch. In the test group, donors were given a single injection of DEM (6mmol/kg) immediately prior to the harvest of the kidney. Recipient mice received a single dose prior to insertion of the kidney. No other agents were used. In the control group, donors and recipients were not given an injection of DEM.

Data set [8] concerns cerebral ischemia-reperfusion injury. Particulars: literature; cited from earlier work.
Where [9] appears, read: phorone 250 mg/kg ip 1 h prior to LPS.

As to `CCOC(=O)/C=C\C(=O)OCC` [DEM, diethylmaleate], the results for the “Lung PI (t = 4 hrs)” value in data set [1] (DEM injected at -1 h) and in data set [1] (DEM injected at -3 h) were 0.06 ± 0.02 and 0.09 ± 0.02, respectively. Further, the “Lung GSH (t = 4 hrs)” value in data set [2] (DEM injected at 0 h) is 278 ± 18; in data set [2] (DEM injected at +2 h), 361 ± 16; in data set [2] (DEM injected at -1 h), 185 ± 48; in data set [2] (DEM injected at -3 h), 591 ± 118. In addition, in data set [3] (RHEC), the “cell viability (trypan blue exclusion)” value is “did not affect cell viability”. For the same compound, the “integrity of the cell monolayer” value in data set [3] (RHEC) is recorded as “nor alter the integrity of the cell monolayer”. Moreover, in data set [3] (RHEC), the “supernatant lactate dehydrogenase levels” value is “unaffected”. The “supernatant lactate dehydrogenase activity” value in data set [3] (RHEC treatment: LPS (1 mg/ml)) is recorded as 33.0 ± 4.0 U/L; in data set [3] (RHEC treatment: TNF-a (100 ng/ml)) it was 33.5 ± 2.5 U/L; in data set [3] (RHEC treatment: control), 32.5 ± 3.5 U/L. Further, the quantitative histopathology score in data set [4] was found to be 0. Also, the “skin permeability index, DEM alone” value in data set [5] (DEM alone) is “no effect”. For the same compound, the “PI (mean ± SEM)” value was determined as 4.03 ± 0.43 in data set [5] (LPS id + DEM 3 mmol/kg ip) and 0.84 ± 0.28 in data set [5] (LPS id + DEM 6 mmol/kg ip, p < 0.001 vs LPS). Moreover, in data set [6], the “reduction in intracellular GSH levels” value is reported as “≈ 75%”. Further, the “intracellular GSH levels” value in data set [6] (No DEM: 6.74±0.08, p<0.01) was 1.66±0.1 nmoles/106 cells. In data set [7], the survival of recipients is 40 to 50 days.
As to `CC(C)=CC(=O)C=C(C)C` [Phorone, diisopropylidene acetone], the “LPS-induced increase in lung permeability” value in data set [1] (setting [9]) was “almost complete prevention of the increase in lung permeability”. Also, the “reduction in lung GSH levels” value in data set [2] (setting [9]) is reported as “comparable reduction in lung GSH levels”.
For `CCCCS(=N)(=O)CCC(N)C(=O)O` (stereo not shown) [BSO, buthionine sulfoximine], in data set [8], the “mortality following cerebral ischemia-reperfusion injury” value is listed as “reduced mortality”.
